Test results taken from PMC4666032, “KPT-330, a potent and selective exportin-1 (XPO-1) inhibitor, shows antitumor effects modulating the expression of cyclin D1 and survivin in prostate cancer models” (BMC Cancer, 2015).

Experiments:
Format in all cases: cell-based
DuCaP = assay: Growth/viability assay, IC50 at 72 h; conditions: Homo sapiens, Fig. 2g
Excerpt: (§1) Four commercial (LnCaP, 22rv1, DU145 and PC3) and twelve non-commercial (LAPC-4 [44], CWR22, PCb2 [45], PC3Lymphnode, PC3M, PC3M-pro4 [46] and PC3M-Ln4 [47], LnCaP-104S [47], LnCaP104R1 [47], LnCaP-C81 [47], C4-2B [48], VCAP [49] and DuCaP [[49]) cell lines were selected for the in vitro experimental studies for their biological characteristics: LAPC-4 (Androgen receptor [AR] positive, androgen dependent with low Akt/mTOR activities, p53 wt); LnCaP (AR positive, androgen dependent with high Akt/mTOR activities, p53 wt); LnCaP-C81 and LnCaP-C4-2B (AR positive, androgen independent with high Akt/mTOR activities, p53 wt); 22rv1 (AR positive, androgen independent with low Akt/mTOR activities, p53 wt); PC3 (AR negative, with high Akt/mTOR activities and no p53 function (p53 del) and DU145 (AR negative, with low Akt/mTOR activities and mutant p53). PC3 and DU145 have been also transfected with AR to obtain PC3AR [50] and DU-AR [51]. Benign prostatic hyperplasia line (BPH1), and Prostatic epithelial lines (EPN and RWPE-1) were used as non-neoplastic controls. Cells were routinely cultured in appropriate medium supplemented with 10 % fetal bovine serum (FBS), 1 % pen-strep and 1 % L-glutamine (Invitrogen Corporation, Carlsbad, CA). To minimize the risk to work with misidentified and/or contaminated cell lines, DNA profiling was periodically carried out in-house to authenticate cell cultures. DNA was isolated from cell lines using a standard DNA isolation kit. STR profiling was performed by using GenePrint® 10 System (Promega Corporation, Madison, WI). An eight-capillary 3500 Genetic Analyzer (Applied Biosystems Life Technologies Europe BV, Monza, Italy) was used to separate and identify alleles using standard procedures. GenePrint® 10 System allows co-amplification and detection of eight human loci required by the guidelines ASN-0002. For non-commercial cell lines, the authentication process was carried out by comparing STR-fingerprints with those published by Adri van Bokhoven and co-workers. In addition, cell lines were stocked at very low passages and used at <15-20 subcultures.
(§2) Cells were seeded at a density of 2 x 10^4 cells/mL in 24-well plates. Cells were left to attach and grow in 5 % FCS DMEM for 24 h. After this time, cells were maintained in the appropriate culture conditions. Morphological controls were performed every day with an inverted phase-contrast photomicroscope (Nikon Diaphot, Tokyo, Japan) before cell trypsinization and counting. Cells were trypsinized and resuspended in 1.0 ml of saline, then counted using a NucleoCounter™ NC-100 (automated cell counter systems, Chemotec, Gydevang, Denmark). The effect on cell proliferation was measured by taking the mean cell number with respect to controls over time for the different treatment groups.
(§3) Viable cells were counted by using the NucleoCounter™ NC-100 (automated cell counter systems, Chemotec, Cydevang, DK). Apoptosis was evaluated by using Tali® Apoptosis Kit - Annexin V Alexa Fluor® 488 & Propidium Iodide-based, (Life Technologies Italia, Monza, Italy). Stained cells were then measured on a Tali® Image-Based Cytometer. Apoptosis was further confirmed by FACS analysis following the instructions of the manufacturer.
(§4) Six SINE analogs KPT-127, KPT-185, KPT-205, KPT-227, KPT251 and KPT-330 sharing a trifluoromethyl phenyl triazole scaffold, were investigated for their growth inhibitory and apoptotic potential in our PCa cell panel. Therefore, the effects of these XPO1 inhibitors were evaluated on the growth of PCa cell lines performing dose- and time-dependent studies. To examine the dose-dependent effects of these compounds, we treated cells with varying doses of the compounds (0, 1, 10, 50, 100, 500 and 1000 nM) and assessed viability at 72 hours after treatment. The IC50 for each compound was then calculated. […]

VCaP = assay: Growth/viability assay, IC50 at 72 h; conditions: Homo sapiens, Fig. 2g
Excerpt: as §1, §2, §3, §4

22rv1 = assay: Growth/viability assay, IC50 at 72 h; conditions: Homo sapiens
Excerpt: as §1, §2, §3, §4

PC3M-Ln4 = assay: Growth/viability assay, IC50 at 72 h; conditions: Homo sapiens; PC3M-Ln4, Fig. 2g
Excerpt: as §1, §2, §3, §4

EPN = assay: Growth/viability assay, IC50 at 72 h; conditions: Homo sapiens, Fig. 2g
Excerpt: as §1, §2, §3, §4

LAPC-4 = assay: Growth/viability assay, IC50 at 72 h; conditions: Homo sapiens
Excerpt: as §1, §2, §3, §4

C4-2B = assay: Growth/viability assay, IC50 at 72 h; conditions: Homo sapiens, Fig. 2g
Excerpt: as §1, §2, §3, §4

PC3AR = assay: Growth/viability assay, IC50 at 72 h; conditions: Homo sapiens, PC3/AR, Fig. 2g
Excerpt: as §1, §2, §3, §4

RWPE-1 = assay: Growth/viability assay, IC50 at 72 h; conditions: Homo sapiens; RWPE-1, Fig. 2g
Excerpt: as §1, §2, §3, §4

CWR22 = assay: Growth/viability assay, IC50 at 72 h; conditions: Homo sapiens; CWR22, Fig. 2g
Excerpt: as §1, §2, §3, §4

LnCaP = assay: Growth/viability assay, IC50 at 72 h; conditions: Homo sapiens
Excerpt: as §1, §2, §3, §4

DU-AR = assay: Growth/viability assay, IC50 at 72 h; conditions: Homo sapiens, Fig. 2g
Excerpt: as §1, §2, §3, §4

PC3 = assay: Growth/viability assay, IC50 at 72 h; conditions: Homo sapiens, PC-3
Excerpt: as §1, §2, §3, §4

PC3M-pro4 = assay: Growth/viability assay, IC50 at 72 h; conditions: Homo sapiens; PC3M-pro4, Fig. 2g
Excerpt: as §1, §2, §3, §4

LnCaP104R1 = assay: Growth/viability assay, IC50 at 72 h; conditions: Homo sapiens; 104R1, Fig. 2g
Excerpt: as §1, §2, §3, §4

BPH-1 = assay: Growth/viability assay, IC50 at 72 h; conditions: Homo sapiens
Excerpt: as §1, §2, §3, §4

LnCaP-104S = assay: Growth/viability assay, IC50 at 72 h; conditions: Homo sapiens, Fig. 2g
Excerpt: as §1, §2, §3, §4

DU145 = assay: Growth/viability assay, IC50 at 72 h; conditions: Homo sapiens, DU-145; DU145, Fig. 2g
Excerpt: as §1, §2, §3, §4

PCb2 = assay: Growth/viability assay, IC50 at 72 h; conditions: Homo sapiens; PCb2, Fig. 2g
Excerpt: as §1, §2, §3, §4

LnCaP-C81 = assay: Growth/viability assay, IC50 at 72 h; conditions: Homo sapiens; C-81, Fig. 2g
Excerpt: as §1, §2, §3, §4

PCa cell lines = assay: Growth inhibition across the PCa cell panel; conditions: Homo sapiens; 72 hours, range across the cell panel; read-out: IC50 values, range over PCa cell lines
Excerpt: as §1, with “STR profiling was performed by using GenePrint® 10 System (Promega Corporation, Madison, WI). An eight-capillary 3500 Genetic Analyzer (Applied Biosystems Life Technologies Europe BV, Monza, Italy) was used to separate and identify alleles using standard procedures. GenePrint® 10 System allows co-amplification and detection of eight human loci required by the guidelines ASN-0002. For non-commercial cell lines, the authentication process was carried out by comparing STR-fingerprints with those published by Adri van Bokhoven and co-workers. In addition, cell lines were stocked at very low passages and used at <15-20 subcultures.” left out
Cells were seeded at a density of 2 x 10^4 cells/mL in 24-well plates. […] Cells were trypsinized and resuspended in 1.0 ml of saline, then counted using a NucleoCounter™ NC-100 (automated cell counter systems, Chemotec, Gydevang, Denmark). The effect on cell proliferation was measured by taking the mean cell number with respect to controls over time for the different treatment groups.
as §3, with “Apoptosis was further confirmed by FACS analysis following the instructions of the manufacturer.” left out
as §4

Row | IC50 (VCaP) [nM] | IC50 (22rv1; 22rv1, 72 hours, Fig. 2a-f) [nM] | IC50 (22rv1; 22rv1, Fig. 2g) [nM] | IC50 (PC3M-Ln4) [nM] | IC50 (PC3AR) [nM] | IC50 (LnCaP; 72 hours, Fig. 2a-f) [nM] | IC50 (LnCaP; Fig. 2g) [nM] | IC50 (PC3; PC3, 72 hours, Fig. 2a-f) [nM] | IC50 (PC3; PC3, Fig. 2g) [nM] | IC50 (PC3M-pro4) [nM] | IC50 (LnCaP104R1) [nM] | SMILES | IC50 (DuCaP) [nM] | IC50 (EPN) [nM] | IC50 (LAPC-4; LAPC4, LAPC-4, Fig. 2g) [nM] | IC50 (LAPC-4; LAPC4, 72 hours, Fig. 2a-f) [nM] | IC50 (C4-2B) [nM] | IC50 (RWPE-1) [nM] | IC50 (CWR22) [nM] | IC50 (DU-AR) [nM] | IC50 (BPH-1; BPH-1, BPH1, Fig. 2g) [nM] | other results
1 | 240 | 204 ± 44 | 204 | 80 | 144 | 171 ± 30 | 171 | 122 ± 5 | 122 | 180 | 160 | COc1cc(-c2ncn(/C=C\c3nnco3)n2)cc(C(F)(F)F)c1 [KPT-225] | 180 | 1000 | 223 | 223 ± 31 | 170 | 1000 | 180 | 112 | > 1000 | IC50 (BPH-1; BPH-1, 72 hours, Fig. 2a-f): > 1000 nM; IC50 (LnCaP-104S): 120 nM; IC50 (DU145): 135 nM; IC50 (PCb2): 160 nM; IC50 (LnCaP-C81): 180 nM
2 | 130 | 78 ± 19 | 78 | 60 | 80 | 113 ± 12 | 301 | 74 ± 5 | 74 | 125 | 100 | CC(C)OC(=O)/C=C\n1cnc(-c2cc(OC(C)C)cc(C(F)(F)F)c2)n1 [KPT-207] | 120 | 750 | 115 | 101 ± 1 | 144 | 820 | 133 | 65 | > 1000 | IC50 (BPH-1; BPH-1, 72 hours, Fig. 2a-f): > 1000 nM; IC50 (LnCaP-104S): 80 nM; IC50 (DU145): 90 nM; IC50 (PCb2): 67 nM; IC50 (LnCaP-C81): 160 nM
3 | 400 | 189 ± 84 | 160 | 200 | 233 | 268 ± 34 | 268 | 207 ± 44 | 207 | 330 | 260 | COc1cc(-c2ncn(/C=C\C(=O)OC(C)C)n2)cc(C(F)(F)F)c1 [KPT-185] | 270 | 1000 | 321 | 321 ± 105 | 179 | 1000 | 230 | 143 | > 1000 | IC50 (BPH-1; BPH-1, 72 hours, Fig. 2a-f): > 1000 nM; IC50 (LnCaP-104S): 240 nM; IC50 (DU145): 177 nM; IC50 (PCb2): 215 nM; IC50 (LnCaP-C81): 200 nM; IC50 (PCa cell lines): 180 to 700 nM
4 | 100 | 100 ± 10 | 100 | 55 | 62 | 43 ± 4 | 43 | 59 ± 3 | 59 | 90 | 30 | CC(C)OC(=O)/C=C\n1cnc(-c2cccc(Cl)c2)n1 [KPT-127] | 100 | 800 | 201 | 201 ± 15 | 25 | 1000 | 160 | 47 | > 1000 | IC50 (BPH-1; BPH-1, 72 hours, Fig. 2a-f): > 1000 nM; IC50 (LnCaP-104S): 50 nM; IC50 (DU145): 55 nM; IC50 (PCb2): 44 nM; IC50 (LnCaP-C81): 20 nM; IC50 (PCa cell lines): 43 to 201 nM
